Entries after “also recorded” stand apart in the source; their conditions may differ.
How the values were obtained:
[1] = Energy expenditure (Promethion Metabolic Analyzer) in mice fed HFD with or without CDDO-EA, LFD or HFD pair-fed; assay type: in vivo, C57BL/6J mice; conditions: HFD + CDDO-EA (0.04%), days 3-9
Procedure: FIG. 22A and FIG. 22B. […] FIG. 22A. EE was measured 289 times in a 24-hour cycle at each day from 3-9 days of the experimental feeding. FIG. 22B. Average EE for days 3-9 of experimental feeding. C57BL/6J mice were fed a HFD with or without incorporation of CDDO-EA (diet containing 0.04% CDDO-EA) or LFD or HFD pair-fed for 6 weeks (n=5).
C57BL/6J mice (6-8 weeks old, male, strain #000664, The Jackson Laboratory) were divided into four (4) groups (i)-(iv)): (i) ad libitum Low fat caloric content (LFD-10% of total calories from fat caloric content, #TD.08806, Envigo), (ii) ad libitum HFD (60% of total calories from fat caloric content, #TD.06414, Envigo), (iii) HFD+CDDO-EA (diet containing 0.04% CDDO-EA), and (iv) HFD pair-fed to food intake of mice fed HFD+CDDO-EA. The study was for 6 weeks (42 days) (performed at Vanderbilt Metabolic Mouse Phenotyping Center (VMMPC)). Mice were singly housed in a Promethion Metabolic Analyzer and were monitored continuously for 7 days to assess feeding and EE.

L6-GLUT4myc myotubes = assay: Sulforhodamine B (SRB) cell viability assay; assay type: cell-based, rat; conditions: 500 nM CDDO-EA, 24 hours
Procedure: Sulforhodamine B (SRB) cell viability assay: L6-GLUT4myc myoblasts (4000 cells/well) were seeded on a 96-well plate and differentiated into myotubes with differentiation medium for 7 days. Myotubes were then treated with doubling concentrations of CDDO-EA for 6 or 24 h. After treatment, myotubes were fixed in 10% cold trichloroacetic acid (TCA) (Sigma Aldrich), for 1 h in 4° C., followed by three washings with water. The plate was then dried, and the cells were dyed with 100 μL/well of 0.057% SRB (Sigma Aldrich) in 1% acetic acid for 30 min in room temperature. The plate was washed with 1% acetic acid five times, dried, and 200 μL/well of 10 mM unbuffered tris-base solution were added to dissolve the bound SRB. The plate was shaken for 1 h and then read on SpectraMax at 560 nm. Results were normalized to values for non-treated cells.

MCP-1 = assay: RT-PCR of PA-induced MCP-1 gene expression in L6-GLUT4myc myotubes; assay type: cell-based, rat; conditions: CDDO-EA 500 nM 1 h then PA 400 μM 6 h
Procedure: L6-GLUT4myc myotubes were pretreated with CDDO-EA (500 nM, 1 h) and treated PA (400 μM, 6 h). TNF-α and MCP-1 gene expression were measured by RT-PCR. Data are represented as +SEM *P<0.05 vs. control, ^#P<0.05 vs. control. * P<0.05 vs. LPS, $P<0.05 vs. PA. (One-Way ANOVA).

NFκB = assay: Western blot of palmitate (PA)-induced NFκB phosphorylation in L6-GLUT4myc myotubes; assay type: cell-based, rat; conditions: CDDO-EA 500 nM 1 h then PA 400 μM 6 h
Procedure: L6-GLUT4myc myotubes were pretreated with CDDO-EA (500 nM, 1 h) and then treated with PA (400 μM, 6 h). NFκB phosphorylation and protein were measured by Western blotting. Data are represented as ±SEM. * P<0.05 vs. control; ^#P<0.05 vs. […]. (One-Way ANOVA).

N171-82Q mice = conditions: cited from earlier work
TNF-α = assay: Quantitative RT-PCR of LPS-induced TNF-α mRNA in L6-GLUT4myc myotubes; assay type: cell-based, rat; conditions: 500 nM CDDO-EA 1 hr then 100 ng/ml LPS 1 hr
Procedure: Quantitative RT-PCR: L6-GLUT4myc myoblasts (4×10^4 cell/ml, 2 ml/well) were seeded on a 6-well plate and differentiated into myo-tubes with differentiation medium for 7 days. Myotubes were pre-treated with CDDO-EA 500 nM for 1 h followed by LPS 100 ng/ml (E. coli O111: B4, Sigma Aldrich) treatment for 1 h. RNA was isolated from treated myotubes using TRIzol reagent (Ambion) according to the manufacturer's instructions. Validated RT-PCR primers specific for rat TNF-α (Assay ID: Rn99999017_m1) and rat MCP-1 (Assay ID: Rn00580555_m1), or rat GAPDH (Assay ID: Rn99999916_s1) were used to quantify mRNA levels using TaqMan RNA-to-CT 1-Step Kit (Thermo Fisher Scientific), Real-time PCR was carried out using an AB7900HT Fast Real-Time PCR System (Applied Biosystems), and MCP-1 and TNF-α levels were calculated using the ΔΔCT method according to the manufacturer's instructions.

[2] = Serum glucose and insulin, oral glucose tolerance test (OGTT) in mice fed LFD or HFD with or without CDDO-EA; assay type: in vivo, C57B16/J mice
Procedure: Data were statistically analyzed by One-Way ANOVA, Two-Way ANOVA with repeated measures, or Two-Way ANOVA with Tukey's multiple comparison test. Throughout the collection of blood samples, OGTTs, and measurement of bodyweight, mice were unrestrained and awake. Blood samples were collected via tail snip before start of experimental feeding and then every two weeks. Oral glucose tolerance tests (OGTTs) were performed after the six-week experimental feeding, and blood samples were collected via tail snip during the OGTT. For OGTT, mice were given 2 g of glucose/kg of body weight by gavage after a five hour fast (36). Glucose levels were measured using a glucometer (Contour), and insulin concentrations were measured using an ELISA (Mercodia). Mice were weighed once a week. Glucose and insulin serum levels were measured every two weeks.
Glucose and insulin levels were measured in the subject animals to determine if prevention of obesity by CDDO-EA in a high fat diet (HFD) chow regimen and in a low fat diet (LFD) regimen coincided with a reduction in hyperglycemia and hyperinsulinemia.

Structure (SMILES): CCNC(=O)[C@]12CCC(C)(C)C[C@H]1C1C(=O)C=C3[C@@]4(C)C=C(C#N)C(=O)C(C)(C)[C@@H]4CC[C@@]3(C)[C@]1(C)CC2 (stereo partly drawn) [CDDO-EA, (4aS,6aR,6bS,8aR,12aS,14bS)-11-cyano-N-ethyl-2,2,6a,6b,9,9,12a-heptamethyl-10,14-dioxo-1,3,4,5,6,6a,6b, 7,8,8a,9,10,12a, 14,14a, 14b-hexadecahydropicene-4a (2H)-carboxamide]
- energy expenditure (EE) [1]: does not affect EE; also recorded: does not affect energy expenditure
- cell viability (L6-GLUT4myc myotubes): 62%
- PA-induced MCP-1 gene expression (MCP-1): inhibits PA-induced NF-κB activation and MCP-1 and TNF-α gene expression; also recorded: blocks TNF-α and MCP-1 gene expression
- PA-induced NFκB phosphorylation (NFκB): inhibits PA-induced NF-κB activation; also recorded: inhibits PA-induced NFκB phosphorylation
- muscle strength and balance, survival (N171-82Q mice; N171-82Q mice): improved muscle strength and balance and increased survival
- accumulation in the skeletal muscle (N171-82Q mice; Stack et al. (2010)): accumulated in the skeletal muscle
- oxidative stress in skeletal muscle (N171-82Q mice; Stack et al. (2010)): oxidative stress in skeletal muscle was reduced
- LPS-induced TNF-α mRNA expression (TNF-α): lowered LPS-induced mRNA levels of TNF-α and MCP-1; also recorded: blocked the mRNA expression of LPS-induced TNF-α and MCP-1; also recorded: reduced LPS-induced TNF-α and MCP-1 gene expression levels; also recorded: inhibits LPS-inducted TNF-α and MCP-1 gene expression
- OGTT serum glucose ([2]; HFD + CDDO-EA, after 6 weeks (FIG. 6B)): prevented increased serum glucose; also recorded: significantly decrease to glucose levels before the HFD experimental feeding; also recorded: prevents glucose intolerance
- OGTT serum insulin ([2]; HFD + CDDO-EA, after 6 weeks (FIG. 7B)): prevented increased serum glucose (FIG. 6B) and insulin concentrations; also recorded: insulin levels did not increase significantly; also recorded: prevents hyperinsulinemia
- serum glucose levels during feeding ([2]; HFD with CDDO-EA, weeks 0-6 (FIG. 13A)): did not increase throughout the six-week feeding; also recorded: prevents glucose intolerance
- serum insulin levels during feeding ([2]; HFD with CDDO-EA, weeks 0-6 (FIG. 13B)): remained significantly higher in mice fed only a HFD compared to mice fed a HFD with CDDO-EA; also recorded: prevents hyperinsulinemia
- serum glucose levels ([2]; LFD + CDDO-EA, after 6 weeks (FIG. 6A)): no significant increase or decrease in serum glucose levels; also recorded: did not affect glucose and insulin levels of mice fed LFD with CDDO-EA
- insulin levels ([2]; LFD + CDDO-EA, after 6 weeks (FIG. 7A)): overlap with the insulin levels before experimental feeding; also recorded: did not affect glucose and insulin levels of mice fed LFD with CDDO-EA

Source: patent publication US20260207626A1, “SYNTHETIC TRITERPENOIDS AND COMPOSITIONS THEREOF IN WEIGHT MANAGEMENT, SKELETAL MUSCLE FUNCTION, AND APPETITE SUPPRESSION” (The Board of Regents of the University of Texas System, priority 2022, published 2026)
